The assay deals with Normal human melanocytes NHM (HEMn-MP, Clonetics). The assay can be described thus: Quantification of melanin synthesis in cell culture (total melanin, absorbance at 405 nm). Type of assay: cell-based. How it is done:
Quantification of Melanin Synthesis in Cell Culture:
Normal human melanocytes NHM (HEMn-MP, Clonetics) were seeded in 96 well cell culture plates and grown to sub-confluence for two days in a mixture of M2-Medium (Clonetics) and Medium (Promocell). Culture medium was exchanged with Culture Medium containing Steviol (96%) and melanogenesis progressed for another three days at 37° C. with another medium exchange on day two. Including cell layer and culture supernatant the total melanin was extracted using 1.7M KOH with vigorous shaking at RT. The total melanin content was determined at 405 nm in an absorbance plate reader versus a control (100%)

Structures are written as SMILES.

As to `C=C1C[C@@]23CC[C@H]4[C@@](C)(CCC[C@@]4(C)C(=O)O)[C@@H]2CC[C@]1(O)C3` [Steviol], the “effect on the production of melanin in human melanocytes” value (0.25 to 1 micro M) is listed as “clear dose dependent positive effect”. Moreover, the “potency relative to positive control Glycyrrhizin” value (melanin production in human melanocytes) is listed as “about 1000 times”.

For the origin of these results see US9393190B2, “Methods for enhancing skin tan and reducing risks of UV skin damage” (DSM IP ASSETS B.V., priority 2009, dated 2016).
